Experimental data as given in PubChem BioAssay (NCI).
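How tested: cells in 96-well plates exposed to compound for 48 hours at five concentrations. TGI: concentration producing complete growth inhibition.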

Columns and labels:
Assay in all cases: DTP human tumour cell line panel, 48 h
MDA-MB-435 = test system: MDA-MB-435
SNB-75 CNS = test system: SNB-75 CNS
BT-549 breast = test system: BT-549 breast
KM12 colon = test system: KM12 colon
RXF 393 renal = test system: RXF 393 renal
OVCAR-4 ovarian = test system: OVCAR-4 ovarian
U251 CNS = test system: U251 CNS
SK-OV-3 ovarian = test system: SK-OV-3 ovarian
HOP-62 NSCLC = test system: HOP-62 NSCLC
UACC-257 melanoma = test system: UACC-257 melanoma
SF-295 CNS = test system: SF-295 CNS
SF-268 CNS = test system: SF-268 CNS
T-47D breast = test system: T-47D breast
PC-3 prostate = test system: PC-3 prostate
SK-MEL-2 melanoma = test system: SK-MEL-2 melanoma
SF-539 CNS = test system: SF-539 CNS
LOX IMVI melanoma = test system: LOX IMVI melanoma
MOLT-4 leukemia = test system: MOLT-4 leukemia
SK-MEL-5 melanoma = test system: SK-MEL-5 melanoma
UACC-62 melanoma = test system: UACC-62 melanoma
RPMI-8226 leukemia = test system: RPMI-8226 leukemia
NCI-H460 lung = test system: NCI-H460 lung
CAKI-1 renal = test system: CAKI-1 renal
MALME-3M melanoma = test system: MALME-3M melanoma
SK-MEL-28 melanoma = test system: SK-MEL-28 melanoma
CCRF-CEM leukemia = test system: CCRF-CEM leukemia
MDA-N = test system: MDA-N
SN12C renal = test system: SN12C renal
K-562 leukemia = test system: K-562 leukemia
SW-620 colon = test system: SW-620 colon
NCI-H23 lung = test system: NCI-H23 lung
TK-10 renal = test system: TK-10 renal
EKVX NSCLC = test system: EKVX NSCLC
NCI/ADR-RES ovarian = test system: NCI/ADR-RES ovarian
HOP-92 NSCLC = test system: HOP-92 NSCLC
SNB-19 CNS = test system: SNB-19 CNS
HCT-116 colon = test system: HCT-116 colon
HL-60(TB) leukemia = test system: HL-60(TB) leukemia
UO-31 renal = test system: UO-31 renal
A498 renal = test system: A498 renal
ACHN renal = test system: ACHN renal
NCI-H522 lung = test system: NCI-H522 lung
OVCAR-8 ovarian = test system: OVCAR-8 ovarian
A549 NSCLC = test system: A549 NSCLC
MDA-MB-231 breast = test system: MDA-MB-231 breast
HCC-2998 colon = test system: HCC-2998 colon
DU-145 prostate = test system: DU-145 prostate
OVCAR-5 ovarian = test system: OVCAR-5 ovarian
M14 melanoma = test system: M14 melanoma
786-0 renal = test system: 786-0 renal
OVCAR-3 ovarian = test system: OVCAR-3 ovarian
IGROV1 ovarian = test system: IGROV1 ovarian
SR leukemia = test system: SR leukemia
HS 578T breast = test system: HS 578T breast
MCF7 breast = test system: MCF7 breast
HCT-15 colon = test system: HCT-15 colon
COLO 205 colon = test system: COLO 205 colon
HT29 colon = test system: HT29 colon

CC1=C(Cc2ccccc2)C(Cc2ccccc2)=C(C)S1=O
TGI (MDA-MB-435): 35.6 µM
TGI (SNB-75 CNS): 54.6 µM
TGI (BT-549 breast): 92.4 µM
TGI (KM12 colon): 36.5 µM
TGI (RXF 393 renal): 55.1 µM
TGI (OVCAR-4 ovarian): > 100 µM
TGI (U251 CNS): > 100 µM
TGI (SK-OV-3 ovarian): > 100 µM
TGI (HOP-62 NSCLC): > 100 µM
TGI (UACC-257 melanoma): 48.5 µM
TGI (SF-295 CNS): > 100 µM
TGI (SF-268 CNS): > 100 µM
TGI (T-47D breast): 59.1 µM
TGI (PC-3 prostate): 54.1 µM
TGI (SK-MEL-2 melanoma): 35.1 µM
TGI (SF-539 CNS): > 100 µM
TGI (LOX IMVI melanoma): 50.9 µM
TGI (MOLT-4 leukemia): 41.5 µM
TGI (SK-MEL-5 melanoma): 30.1 µM
TGI (UACC-62 melanoma): 34.3 µM
TGI (RPMI-8226 leukemia): 54.4 µM
TGI (NCI-H460 lung): 99.1 µM
TGI (CAKI-1 renal): > 100 µM
TGI (MALME-3M melanoma): > 100 µM
TGI (SK-MEL-28 melanoma): > 100 µM
TGI (CCRF-CEM leukemia): 49.9 µM
TGI (MDA-N): 71.2 µM
TGI (SN12C renal): 84.1 µM
TGI (K-562 leukemia): > 100 µM
TGI (SW-620 colon): > 100 µM
TGI (NCI-H23 lung): 95.7 µM
TGI (TK-10 renal): 76.2 µM
TGI (EKVX NSCLC): 46.9 µM
TGI (NCI/ADR-RES ovarian): 51.7 µM
TGI (HOP-92 NSCLC): > 100 µM
TGI (SNB-19 CNS): > 100 µM
TGI (HCT-116 colon): 74.7 µM
TGI (HL-60(TB) leukemia): 34.6 µM
TGI (UO-31 renal): > 100 µM
TGI (A498 renal): 63.7 µM
TGI (ACHN renal): > 100 µM
TGI (NCI-H522 lung): 78.8 µM
TGI (OVCAR-8 ovarian): > 100 µM
TGI (A549 NSCLC): > 100 µM
TGI (MDA-MB-231 breast): 52.3 µM
TGI (HCC-2998 colon): 42.4 µM
TGI (DU-145 prostate): > 100 µM
TGI (OVCAR-5 ovarian): 73.2 µM
TGI (M14 melanoma): 46.3 µM
TGI (786-0 renal): 71 µM
TGI (OVCAR-3 ovarian): > 100 µM
TGI (IGROV1 ovarian): > 100 µM
TGI (SR leukemia): 53.2 µM
TGI (HS 578T breast): > 100 µM
TGI (MCF7 breast): 60 µM
TGI (HCT-15 colon): > 100 µM
TGI (COLO 205 colon): 43.1 µM
TGI (HT29 colon): 39.4 µM
